# US12329758B2, “Methods for the treatment of psoriatic arthritis” (Alfasigma S.p.A., priority 2018, dated 2025)
# Like-named read-outs stand apart in the source and are kept apart here.
# Experiments:
# [1] = system: enthesitis in PsA patients; test: Phase 2 clinical study NCT03101670, enthesitis by SPARCC Enthesitis Index; conditions: human, in vivo
# Method: As used herein, the term ‘SPARCC Enthesitis Index’ refers to a clinical scoring after examination of (entheseal) tenderness at 16 peripheral sites, which are evaluated for tenderness by palpation, and scored 0 (non-tender) or 1 (tender). The total enthesitis score is the sum of all site scores and is maximally 16. The higher the score, the higher the enthesitis burden. (Maksymowych W P et al. Development and validation of the Spondyloarthritis Research Consortium of Canada (SPARCC) Enthesitis Index. Ann Rheum Dis 2009; 68:948-53)
# (§1) This is a multicenter, Phase 2, double-blind, placebo-controlled study in subjects with moderately to severely active PsA who have an inadequate response or are intolerant to conventional disease-modifying therapy. […] Randomization to treatment groups are stratified by current cDMARD use (yes or no) and prior anti-TNF pharmaceutical use (yes or no).
# Enthesitis is assessed using the SPARCC Enthesitis Index. Sixteen body sites is evaluated for tenderness by palpation, and scored with 0 (non-tender) or 1 (tender). The total enthesitis score is the sum of all site scores and is maximally 16. The higher the score, the higher the enthesitis burden.
# Enthesitis is assessed using the SPARCC Enthesitis Index and Leeds Enthesitis Index (LEI). The Enthesitis parameters are analyzed only in the subpopulation of subjects who have enthesitis at baseline (LEI >0). […]
# [2] = system: moderately to severely active PsA; test: Phase 2 clinical study NCT03101670, Minimal Disease Activity (MDA); assay type: in vivo, human; conditions: 200 mg q.d.
# Text: As used herein, the term ‘MDA’ refers to the Minimal Disease Activity, which is a measure for disease remission. For the purpose of the present invention a patient will be classified as having achieved MDA when 5 out of 7 of the following criteria are met: • TJC68 ≤1 • SJC66 ≤1 • PASI ≤1 or BSA ≤3% • Patient's Global Assessment of PsA pain intensity score ≤15 (0-100 mm VAS) • Patient's Global Assessment of Disease Activity ≤20 (0-100 mm VAS) • HAQ-DI ≤0.5 • SPARCC Enthesitis Index ≤1.
# as §1
# The disease activity in PsA will be measured using the MDA, which is a measure to indicate disease remission. The MDA is based on a composite score of 7 domains. A patient will be classified as having achieved MDA when 5 out of 7 of the following criteria are met: • TJC68 ≤1 • SJC66 ≤1 • PASI ≤1 or BSA ≤3% • Patient's Global Assessment of PsA pain intensity score ≤15 (0-100 mm VAS) • Patient's Global Assessment of Disease Activity ≤20 (0-100 mm VAS) • HAQ-DI ≤0.5 • SPARCC Enthesitis Index ≤1
# [3] = system: moderately to severely active PsA; test: Phase 2 clinical study NCT03101670, physical function (HAQ-DI); assay type: in vivo, human; conditions: 200 mg q.d.
# Text: As used herein, the term 'HAQ-ID' refers to the Health Assessment Questionnaire […] Disability Index, which is a measure for the physical functioning of a patient. The HAQ-DI is a 20-question instrument assessing the degree of difficulty a person has in accomplishing tasks in 8 function areas (B. Bruce and J. Fries, “The Stanford Health Assessment Questionnaire: dimensions and practical applications,” Health Qual Life Outcomes, p. 1:20, 2003). The HAQ-DI total score ranges from 0 to 3 with higher scores indicating greater dysfunction. This is a multicenter, Phase 2, double-blind, placebo-controlled study in subjects with moderately to severely active PsA who have an inadequate response or are intolerant to conventional disease-modifying therapy. […] Randomization to treatment groups are stratified by current […] use (yes or no) and prior anti-TNF pharmaceutical use (yes or no). The HAQ-DI is used to monitor the subject's self-assessed physical function or disability. This 20-question instrument assesses the degree of difficulty a person has in accomplishing tasks in 8 function areas (getting dressed, arising, eating, walking, […], hygiene, reaching, gripping, errands and chores). Responses are scored on a 4-point Likert scale from 0, indicating no difficulty, to 3, indicating inability to perform a task in that area. The need for aids/devices or help from another person is also recorded. The HAQ-DI total score ranges from 0 to 3 with higher scores indicating greater dysfunction. HAQ-DI is scored on a scale from 0 to 3 and changes from baseline are reported. A decrease by at least 0.22 points versus the baseline is considered clinically meaningful.
# [4] = system: enthesitis in PsA patients; test: Phase 2 clinical study NCT03101670, enthesitis by Leeds Enthesitis Index (LEI); assay type: in vivo, human; conditions: for LEI score (change from baseline): 200 mg q.d.
# Text: As used herein, the term ‘Leeds Enthesitis Index’ or ‘LEI’ refers to a clinical scoring after examination of (entheseal) tenderness at six sites: 2 sites at each of the lateral epicondyles of the humerus, medial condyles of the femur and the insertion of the Achilles tendon. The LEI score range is 0-6. The higher the score, the higher the enthesitis burden.
# as §1
# In addition to the 16 sites used to assess enthesitis when evaluating the SPARCC Enthesitis Index, medial femoral condyles (left and right) is also assessed and evaluated in a similar way as the other 16 sites to allow assessing the Leeds enthesitis index (LEI).
# Enthesitis is assessed using the SPARCC Enthesitis Index and Leeds Enthesitis Index (LEI). The Enthesitis parameters are analyzed only in the subpopulation of subjects who have enthesitis at baseline (LEI >0). Analysis focusses on the changes from baseline.
# [5] = system: moderately to severely active PsA; test: Phase 2 clinical study NCT03101670, ACR20/50/70 response; assay type: in vivo, human; conditions: for ACR20 / ACR50 / ACR70: 200 mg q.d.
# Text: For the purpose of the present invention, the terms “ACR20”, “ACR50” and “ACR70” as used herein are scores which indicate how much a patient's symptoms of peripheral arthritis have improved according to criteria set out by the American College of Rheumatology (ACR). The ACR score represents a percentage. An ACR20 score means that a person's arthritis symptoms have improved by 20%, an ACR50 score means it has improved by 50%, and an ACR70 score means it has improved by 70%. Specifically, to qualify for an ACR20 score, a person must have at least 20% fewer tender joints (at least 20% improvement from baseline in tender joint counts, TJC68) and at least 20% fewer swollen joints (at least 20% improvement from baseline in swollen joint counts, SJC66). In addition the patient must show a 20% improvement in at least three of the following five areas: the person's overall (global) assessment of his or her own disease activity (on a 0-100 mm visual analog scale (VAS)), the physician's global assessment of the person's disease activity (on a 0-100 mm VAS), the person's assessment of his or her own PsA pain intensity (on a 0-100 mm VAS), the person's assessment of his or her own physical functioning as measured by HAQ-DI, and the results of a C-reactive protein (CRP) blood test (in mg/dL or mg/L). ACR50 and ACR70 scores use the same criteria but require 50% and 70% improvement, respectively.
# as §1
# Efficacy assessments to estimate signs and symptoms of PsA and peripheral arthritis, psoriasis, enthesitis, dactylitis, spondylitis, and physical function are carried out at Baseline (Day 1) and at Weeks 1, 2, 4, 8, 12, 16, or at the early discontinuation visit (EDV) if applicable, unless otherwise noted. The individual components of the ACR response criteria are obtained at screening and throughout the study.
# The patient's assessment of pain is performed using a 0-100 mm VAS ranging from “no pain” to “unbearable pain” after the question “Please indicate with a vertical mark (|) through the horizontal line the most pain you had from your psoriatic arthritis today”. The length of the line from 0 to the patient's mark is recorded. This assessment should be completed before the joint examination. This pain score is also used to derive the ACR20/50/70.
# The signs and symptoms of peripheral arthritis are measured using ACR20/50/70. The ACR response is a measurement of improvement in multiple disease assessment criteria.
# A positive ACR20 response is defined as at least 20% improvement from baseline in both swollen (SJC66) and tender (TJC68) joint counts, and at least 20% improvement in 3 or more of the following 5 criteria: • Patient's Global Assessment of Disease Activity (0-100 mm VAS) • Physician's Global Assessment of Disease Activity (0-100 mm VAS) • Patient's Global Assessment of PsA pain intensity (0-100 mm VAS) • Patient's assessment of physical function as measured by HAQ-DI • CRP in mg/dL or mg/L
# A positive ACR50 and ACR70 response is derived from the definition of the ACR20, but requiring at least 50% and 70% improvement, respectively.
# [6] = system: psoriasis in PsA subjects with ≥3% BSA at baseline; test: Phase 2 clinical study NCT03101670, psoriasis (PASI); assay type: in vivo, human; conditions: 200 mg q.d.
# Text: As used herein, the term ‘PASI’ refers to the Psoriasis Area and Severity Index score and is an index used to express the severity of psoriasis. It combines the severity (erythema, induration and desquamation) and percentage of affected area. Further details on the determination of PASI is provided in example 1. The PASI score represents the change from baseline. ‘PASI50’ refers to the portion of patients who achieved 50% improvement in the PASI score upon the tested treatment. ‘PASI75’ refers to the portion of patients who achieved 75% improvement in the PASI score upon the tested treatment. ‘PASI90’ refers to the portion of patients who achieved 90% improvement in the PASI score upon the tested treatment.
# as §1
# The PASI score is used to measure the severity and extent of psoriasis. Representative area of psoriasis is selected for each body region (head, arms, trunk and legs). The intensity of erythema, induration and desquamation of the psoriasis is assessed as none (0), mild (1), moderate (2), severe (3) or very severe (4).
# A numerical score, ranging from 0 to 100%, will be used to measure the proportion of the subject's total BSA involved with psoriasis, as assessed by the investigator.
# Four sites of affection, the head (h), upper limb (u), trunk (t) and lower limbs (l), are separately scored by using 3 parameters, erythema (E), induration (I) and desquamation (D), each of which is graded on a severity scale of 0 to 4 (0=none, 1=mild, 2=moderate, 3=severe and 4=very severe) (Section 1.4.6). The area-wise percentage involvement of the involved sites is calculated as: 1=less than 10% area; 2=10-29%; 3=30-49%; 4=50-69%; 5=70-89%; and 6=more than 90%. The final formula for PASI score is: PASI=0.1×(Eh+Ih+Dh)×Ah+0.2×(Eu+Iu+Du)×Au+0.3×(Et+It+Dt)×At+0.4×(El+Il+Dl)×Al
# The total PASI score ranges between 0 (no disease) and 72 (maximal disease), but is considered unreliable when BSA <3%. Therefore, the PASI is only analysed in the subpopulation of subjects with psoriasis involving ≥3% BSA at baseline.
# The following PASI parameters can be derived: • PASI change from baseline • PASI 50% improvement (PASI50) • PASI 75% improvement (PASI75) • PASI 90% improvement (PASI90) • PASI 100% improvement or complete resolution of all disease (PASI100)
# [7] = abundance of the metabolite relative to the parent compound in humans; assay type: in vivo, human; conditions: relative to compound I
# Text: (§2) Though the potency of this metabolite is lower than the parent molecule, the overall exposure and peak plasma concentration in humans is higher than seen in all tested animal species. As a consequence, dedicated pharmacology and toxicology studies have been performed with compound II. […] The compound according to formula II is described in WO2013/189771.
# JAK1 = JAK1 (Homo sapiens, UniProt P23458); test: inhibition of JAK1 signaling by the metabolite relative to the parent; conditions: relative to compound I
# JAK1, sequence (P23458 whole entry, species assumed): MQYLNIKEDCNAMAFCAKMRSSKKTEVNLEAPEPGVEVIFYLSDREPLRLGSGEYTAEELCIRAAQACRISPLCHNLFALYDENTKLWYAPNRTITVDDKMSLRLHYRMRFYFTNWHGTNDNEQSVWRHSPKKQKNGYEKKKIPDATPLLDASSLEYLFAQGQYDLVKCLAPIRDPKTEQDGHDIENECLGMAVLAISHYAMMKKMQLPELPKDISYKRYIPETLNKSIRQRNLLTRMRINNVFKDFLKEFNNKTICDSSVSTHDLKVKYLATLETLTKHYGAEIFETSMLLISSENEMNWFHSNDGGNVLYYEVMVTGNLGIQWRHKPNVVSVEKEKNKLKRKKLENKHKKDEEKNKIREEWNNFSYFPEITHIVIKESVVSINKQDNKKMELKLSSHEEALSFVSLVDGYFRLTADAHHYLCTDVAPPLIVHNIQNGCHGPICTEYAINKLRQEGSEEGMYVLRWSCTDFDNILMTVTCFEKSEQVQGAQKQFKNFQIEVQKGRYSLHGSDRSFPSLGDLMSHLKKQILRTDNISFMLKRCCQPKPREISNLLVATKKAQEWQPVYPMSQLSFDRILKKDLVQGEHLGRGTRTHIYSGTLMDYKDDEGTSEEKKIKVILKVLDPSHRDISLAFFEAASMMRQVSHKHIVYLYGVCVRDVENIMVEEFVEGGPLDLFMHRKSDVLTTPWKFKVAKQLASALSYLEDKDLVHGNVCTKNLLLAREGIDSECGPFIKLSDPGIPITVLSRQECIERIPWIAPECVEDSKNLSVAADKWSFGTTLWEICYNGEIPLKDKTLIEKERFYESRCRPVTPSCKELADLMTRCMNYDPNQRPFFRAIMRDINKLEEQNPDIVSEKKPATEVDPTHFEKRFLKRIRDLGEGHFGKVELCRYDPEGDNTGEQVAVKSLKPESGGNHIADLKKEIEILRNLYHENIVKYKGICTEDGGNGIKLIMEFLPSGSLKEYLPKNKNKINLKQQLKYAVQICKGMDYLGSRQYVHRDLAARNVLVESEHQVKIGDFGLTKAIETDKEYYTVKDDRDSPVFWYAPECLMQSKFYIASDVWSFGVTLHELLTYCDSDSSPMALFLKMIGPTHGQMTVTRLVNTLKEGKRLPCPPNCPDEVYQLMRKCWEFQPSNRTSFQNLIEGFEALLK
# Text: as §2
# [8] = system: active psoriatic arthritis; conditions: cited from earlier work
# [9] = W12, subjects with ≥3% BSA at baseline
# [10] = W16, subjects with ≥3% BSA at baseline
structure (smiles),measurement,setting,value
"O=C(Nc1nc2cccc(-c3ccc(CN4CCS(=O)(=O)CC4)cc3)n2n1)C1CC1 [compound I, cyclopropanecarboxylic acid {5-[4-(1,1-dioxo-thiomorpholin-4-ylmethyl)-phenyl]-[1,2,4]triazolo[1,5-a]pyridin-2yl}-amide]",effect on enthesitis compared with placebo,[1],improved enthesitis compared with placebo
same,MDA,[2]; Week 12,21.5%
same,MDA,[2]; Week 16,23.1%
same,HAQ-DI (change from baseline),[3]; Week 1,−0.19
same,HAQ-DI (change from baseline),[3]; Week 2,−0.30
same,HAQ-DI (change from baseline),[3]; Week 4,−0.44
same,HAQ-DI (change from baseline),[3]; Week 8,−0.50
same,HAQ-DI (change from baseline),[3]; Week 12,−0.53
same,HAQ-DI (change from baseline),[3]; Week 16,−0.57
same,LEI score (change from baseline),"[4]; Week 4, enthesitis at baseline (LEI >0)",−1.7
same,LEI score (change from baseline),"[4]; Week 8, enthesitis at baseline (LEI >0)",−2.1
same,LEI score (change from baseline),"[4]; Week 12, enthesitis at baseline (LEI >0)",−1.9
same,LEI score (change from baseline),"[4]; Week 16, enthesitis at baseline (LEI >0)",−1.8
same,"Enthesitis resolved per LEI, treatment difference versus placebo",[4]; patients with enthesitis at baseline,26%
same,ACR20,[5]; Week 1,26.2%
same,ACR50,[5]; Week 1,6.2%
same,ACR70,[5]; Week 1,1.5%
same,ACR20,[5]; Week 2,33.8%
same,ACR50,[5]; Week 2,10.8%
same,ACR70,[5]; Week 2,3.1%
same,ACR20,[5]; Week 4,61.5%
same,ACR50,[5]; Week 4,20.0%
same,ACR70,[5]; Week 4,7.7%
same,ACR20,[5]; Week 8,67.7%
same,ACR50,[5]; Week 8,32.3%
same,ACR70,[5]; Week 8,12.3%
same,ACR20,[5]; Week 12,83.1%
same,ACR50,[5]; Week 12,41.5%
same,ACR70,[5]; Week 12,10.8%
same,ACR50,[5]; Week 16,47.7%
same,ACR70,[5]; Week 16,23.1%
same,ACR20 and ACR50 difference from placebo,[5]; as from week 1,statistically significant difference from placebo
same,"difference in ACR20, ACR50 and ACR70 score versus placebo",[5]; week 16,statistically significant difference
same,PASI75,[6]; [9],33.3%
same,PASI mean cfb,[6]; [9],−5.5
same,PASI75,[6]; [10],45.2%
same,PASI mean cfb,[6]; [10],−6.3
Nc1nc2cccc(-c3ccc(CN4CCS(=O)(=O)CC4)cc3)n2n1 [compound II],"abundance, fold more abundant than the parent compound",[7],about 10 fold
same,"potency on JAK1 signaling, fold less potent than parent compound",JAK1,approximately 20 fold
C[C@@H]1CCN(C(=O)CC#N)C[C@@H]1N(C)c1ncnc2[nH]ccc12 [tofacitinib],ACR20 response rate,"[8]; month 3, dosed at 5 mg",50%
same,ACR20 response rate,"[8]; month 3, dosed at 10 mg",61%
